Experiments:
[1] = molecular target: R4 (WP_199478134-LBD); format: binding, Marinomonas spartinae; conditions: ITC, 25 °C, pH 8.0; read-out: Dissociation constant, R4
[2] = system: R5 (WP_131005693-LBD); assay: Microcalorimetric titration (ITC) of the R5 LBD with ligands; format: binding, Clostridioides difficile; conditions: 25 °C, pH 7.0
[3] = system: R11 (WP_162024566-LBD); assay: Microcalorimetric titration (ITC) of the R11 LBD with ligands; format: binding, Lentimonas sp. CC4; conditions: 25 °C; for Binding in microcalorimetric titration, R11: pH 7.0
[4] = molecular target: T1, R14 (WP_021170906-LBD) (Sporomusa ovata, UniProt A0A0U1L1T7); assay: Microcalorimetric titration (ITC) of the R14 LBD with ligands; format: binding; conditions: ITC; for Kd: 25 °C, read-out: Dissociation constant, R14; for N value, R14: One binding site model, * = hyperbolic curve
T1 sequence (A0A0U1L1T7 entry or part of it): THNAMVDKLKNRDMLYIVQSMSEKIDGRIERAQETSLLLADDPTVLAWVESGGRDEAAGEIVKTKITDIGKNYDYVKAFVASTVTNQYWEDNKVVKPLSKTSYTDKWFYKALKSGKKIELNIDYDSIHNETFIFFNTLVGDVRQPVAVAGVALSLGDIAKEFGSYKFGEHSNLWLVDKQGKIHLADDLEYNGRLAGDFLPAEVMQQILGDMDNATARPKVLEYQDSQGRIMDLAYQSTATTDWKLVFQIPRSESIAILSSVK

[5] = molecular target: R15 (WP_207952809-LBD) (Paenibacillus agricola, UniProt A0ABX0IZG8); assay: Microcalorimetric titration (ITC) of the R15 LBD with ligands; format: binding, Paenibacillus sp. S3N08; conditions: for Binding in microcalorimetric titration, R15: pH 7.0
Sequence of R15 (WP_207952809-LBD) (A0ABX0IZG8 entry or part of it): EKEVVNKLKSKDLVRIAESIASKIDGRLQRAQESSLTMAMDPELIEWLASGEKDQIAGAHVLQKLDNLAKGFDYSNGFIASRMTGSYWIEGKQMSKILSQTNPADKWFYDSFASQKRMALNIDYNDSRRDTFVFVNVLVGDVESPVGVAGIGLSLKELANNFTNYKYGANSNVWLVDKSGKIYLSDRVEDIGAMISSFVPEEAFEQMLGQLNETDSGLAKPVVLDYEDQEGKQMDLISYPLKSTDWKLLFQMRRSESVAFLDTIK

[6] = system: R13 (WP_167859577-LBD); format: binding, Paenibacillus cymbidii; conditions: change in Tm, threshold 2 °C; 2 mM ligand (Supplementary Fig. 7)
[7] = molecular target: T2, R1 (WP_219614703-LBD) (Aeromonas salmonicida, UniProt T0PLV6); assay: Microcalorimetric titration (ITC) of the R1 LBD with ligands; format: binding; conditions: ITC
[8] = system: R5 (WP_131005693-LBD); assay: Thermal shift assay of the R5 LBD; format: binding, Clostridioides difficile; conditions: change in Tm, threshold 2 °C
[9] = molecular target: T2, R1 (WP_219614703-LBD); format: binding; conditions: change in Tm, threshold 2 °C
[10] = system: R4 (WP_199478134-LBD); assay: Thermal shift assay of the R4 LBD; format: binding, Marinomonas spartinae; conditions: change in Tm, threshold 2 °C
[11] = molecular target: R6 (WP_185834821-LBD) (Vibrio cholerae, UniProt Q9KPY8); assay: Thermal shift assay of the R6 LBD; format: binding; conditions: change in Tm, threshold 2 °C
[12] = system: R10 (WP_110129388-LBD); format: binding, Coraliomargarita sinensis; conditions: change in Tm, threshold 2 °C
[13] = molecular target: T1, R14 (WP_021170906-LBD); assay: Thermal shift assay of the R14 LBD; format: binding; conditions: change in Tm, threshold 2 °C
[14] = molecular target: R8 (WP_227113344-LBD) (Eggerthella sinensis, UniProt A0ABX9HL97); assay: Microcalorimetric titration (ITC) of the R8 LBD with ligands; format: binding; conditions: One binding site model, * = hyperbolic curve
[15] = system: dCache_1PU domains (11 proteins analyzed); assay: Summary of binding data (thermal shift assays and ITC) for the 11 dCache_1PU proteins; conditions: of the 11 proteins analyzed
[16] = system: members of the family dCache_1PU (11 soluble LBDs); assay: Thermal shift ligand screening of all dCache_1PU proteins (Biolog arrays PM3B and PM5); format: binding
[17] = One binding site model, * = hyperbolic curve

| Compound | Binding in microcalorimetric titration, R5 [2] | Binding in microcalorimetric titration, R11 [3] | Kd [4] [µM] | N value, R14 [4] | Binding in microcalorimetric titration, R15 ([5]; 25 °C) | Binding in thermal shift assay, R13 [6] | Shift in the thermal shift assays [16] | other results |
| --- | --- | --- | --- | --- | --- | --- | --- | --- |
| c1ncc2nc[nH]c2n1 [Purine] | Nb^a | Nb^a | 94 ± 19 | 0.19 | Nb^a | Nts^b (no binding observed in thermal shift assays, i.e., compounds caused changes in the midpoint of protein unfolding (Tm) of less than 2 °C) |  | Kd [1]: 2.3 ± 0.3 µM |
| Cc1c[nH]c(=O)[nH]c1=O [Thymine] |  |  | 32 ± 8.9 | 0.99 | Nb^a | Nts^b (no binding observed in thermal shift assays, i.e., compounds caused changes in the midpoint of protein unfolding (Tm) of less than 2 °C) |  | Kd ([7]; 25 °C, pH 7.0, read-out: Dissociation constant, R1): 595 ± 47 µM; N value, R1 [7, 17]: 0.20; Kd [1]: 21 ± 0.4 µM; Kd ([3]; pH 7.0, 1 mM β-mercaptoethanol, read-out: Dissociation constant, R11): 854 ± 254 µM; Binding in thermal shift assay, R5 [8]: Nts^b (no binding observed in thermal shift assays, i.e., compounds caused changes in the midpoint of protein unfolding (Tm) of less than 2 °C) |
| O=c1[nH]c(=O)c2[nH]c(=O)[nH]c2[nH]1 [Uric acid] | Nb^a | Nb^a |  |  | Nb^a | Nts^b (no binding observed in thermal shift assays, i.e., compounds caused changes in the midpoint of protein unfolding (Tm) of less than 2 °C) |  | Binding in thermal shift assay, R1 [9]: Nts^b (no binding observed in thermal shift assays, i.e., compounds caused changes in the midpoint of protein unfolding (Tm) of less than 2 °C); Binding in thermal shift assay, R4 [10]: Nts^b (no binding observed in thermal shift assays, i.e., compounds caused changes in the midpoint of protein unfolding (Tm) of less than 2 °C); Binding in thermal shift assay, R6 [11]: Nts^b (no binding observed in thermal shift assays, i.e., compounds caused changes in the midpoint of protein unfolding (Tm) of less than 2 °C); Binding in thermal shift assay, R10 (Supplementary Table 3) ([12]; cells left empty in Table 3): Nts (No binding observed in thermal shift assays, i.e. compounds caused changes in the midpoint of protein unfolding (Tm) of less than 2 ºC); Binding in thermal shift assay, R14 [13]: Nts^b (no binding observed in thermal shift assays, i.e., compounds caused changes in the midpoint of protein unfolding (Tm) of less than 2 °C) |
| O=c1[nH]c(=O)c2nc[nH]c2[nH]1 [Xanthine] | Nb^a | Nb^a | 5.1 ± 0.9 | 0.13 |  | Nts^b (no binding observed in thermal shift assays, i.e., compounds caused changes in the midpoint of protein unfolding (Tm) of less than 2 °C) |  | Binding in microcalorimetric titration, R1 ([7]; 25 °C, pH 7.0): Nb^a; N value, R8 [14]: 0.15; Kd ([5]; 25 °C, pH 7.0, read-out: Dissociation constant, R15): 7.6 ± 1.1 µM; N value, R15 [5, 17]: 0.05; Binding in thermal shift assay, R4 [10]: Nts^b (no binding observed in thermal shift assays, i.e., compounds caused changes in the midpoint of protein unfolding (Tm) of less than 2 °C); Binding in thermal shift assay, R6 [11]: Nts^b (no binding observed in thermal shift assays, i.e., compounds caused changes in the midpoint of protein unfolding (Tm) of less than 2 °C); Binding in thermal shift assay, R10 ([12]; 2 mM ligand (Supplementary Fig. 7)): Tsa^c (binding observed in thermal shift assays, i.e., compounds caused changes in Tm of more than 2 °C); Proteins that bound / recognized the ligand [15]: 2 |
| C[N+](C)(C)CCO [choline] |  |  |  |  |  |  | did not produce any significant shift |  |
| NCCO [ethanolamine] |  |  |  |  |  |  | did not produce any significant shift |  |
| CN [methylamine] |  |  |  |  |  |  | did not produce any significant shift |  |
